Experimental data published in PubChem BioAssay (NCI).
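Tested at 5 concentrations; 48 h exposure; 96-well plates; endpoints linearly interpolated, else capped at highest concentration. GI50 = concentration required for 50% inhibition of growth. TGI denotes the concentration required for complete inhibition of growth.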

What was measured:
Test in all cases: growth of human tumour cells (NCI), 48 h
ACHN renal = test system: ACHN renal
CAKI-1 renal = test system: CAKI-1 renal
NCI/ADR-RES ovarian = test system: NCI/ADR-RES ovarian
OVCAR-3 ovarian = test system: OVCAR-3 ovarian
OVCAR-5 ovarian = test system: OVCAR-5 ovarian
SF-268 CNS = test system: SF-268 CNS
SK-MEL-28 melanoma = test system: SK-MEL-28 melanoma
SR leukemia = test system: SR leukemia
T-47D breast = test system: T-47D breast
UACC-257 melanoma = test system: UACC-257 melanoma

| SMILES | TGI (ACHN renal) [µM] | TGI (CAKI-1 renal) [µM] | TGI (NCI/ADR-RES ovarian) [µM] | TGI (OVCAR-3 ovarian) [µM] | TGI (OVCAR-5 ovarian) [µM] | TGI (SF-268 CNS) [µM] | TGI (SK-MEL-28 melanoma) [µM] | TGI (SR leukemia) [µM] | TGI (T-47D breast) [µM] | TGI (UACC-257 melanoma) [µM] | GI50 (ACHN renal) [µM] | GI50 (CAKI-1 renal) [µM] | GI50 (NCI/ADR-RES ovarian) [µM] | GI50 (OVCAR-3 ovarian) [µM] | GI50 (OVCAR-5 ovarian) [µM] | GI50 (SF-268 CNS) [µM] | GI50 (SK-MEL-28 melanoma) [µM] | GI50 (SR leukemia) [µM] | GI50 (T-47D breast) [µM] | GI50 (UACC-257 melanoma) [µM] |
| --- | --- | --- | --- | --- | --- | --- | --- | --- | --- | --- | --- | --- | --- | --- | --- | --- | --- | --- | --- | --- |
| O=C(CCCn1ccnc1[N+](=O)[O-])NCCn1cnc([N+](=O)[O-])c1 | > 100 | > 100 | > 100 | > 100 | > 100 | > 100 | > 100 | > 100 | > 100 | > 100 |  |  |  |  |  |  |  |  |  |  |
| COc1cc2c(cc1OCCCCC(=O)Nc1ccc(-c3nc4ccccc4s3)cc1)N=C[C@@H]1CCCN1C2=O | 8.53 | 5.96 | 62.6 | 8.01 | 11.9 | 5.66 | 5.81 | 9.48 | 10.1 | 3.81 | 3 | 2.2 | 10.9 | 1.86 | 3.56 | 2.04 | 2.23 | 0.548 | 1.96 | 1.73 |
| N#Cc1cc2cc3c4c(c2oc1=O)CCCN4CCC3 | > 100 | > 100 | > 100 | > 100 | > 100 | > 100 | > 100 | > 100 | > 100 | > 100 |  |  |  |  |  |  |  |  |  |  |
| COc1ccc2nc(-c3ccccc3)cc(Nc3ccc(/C(C)=N/O)cc3)c2c1 | 29.3 |  | > 24.6 | > 100 | > 100 | > 23 | > 100 | > 100 | > 100 | 7.78 | 14.1 | 2.5 | 2.75 | 2.87 | 5.5 | 3.39 | 3.13 | 3.82 | 6.18 | 2.88 |
| CC(C)(C)c1ccc(C(=O)N/N=C/c2ccc(O)cc2O)cc1 | 7.74 | 1.99 | 19.3 | 2.06 | 14.7 | 8.19 | 13.9 | > 100 | 32.6 | 21.4 | 0.334 | 0.342 | 0.351 | 0.28 | 0.661 | 0.358 | 0.595 | 0.317 | 0.786 | 0.557 |
| c1ccc(-c2n(Cc3ccc4ccccc4n3)c3ccccc3[n+]2Cc2ccc3ccccc3n2)cc1 | 3.01 | 3.37 | > 55.6 | 1.38 | 2 | 1.35 | 1.44 | 2.42 | 1.96 | 0.933 | 1.41 | 1.36 | 13.6 | 0.311 | 0.376 | 0.333 | 0.359 | 0.357 | 0.193 | 0.252 |
| Cc1ccc(C(=O)Nc2ccc(CN3CCN(C)CC3)c(C(F)(F)F)c2)cc1C#Cc1cncc2ncccc12 | 0.999 | 2.52 | 16 | 14.7 | 5.71 | 4.33 | 1.55 | 7.78 | 21.1 | 4.42 | 0.162 | 0.222 | 0.502 | 0.558 | 0.653 | 0.408 | 0.286 | 0.63 | 1.58 | 0.402 |
| COC(=O)c1[nH]nc(-c2ccccc2)c1N1CCCCC1 | 62.1 | 87.8 | 58.5 | > 100 | > 100 | 53.5 | > 100 | > 100 | 72.4 | > 100 | 25.6 | 62.4 | 22.8 | 40.7 | 51.7 | 20.8 | 52.1 | 46.5 | 27 | 39.7 |
| Clc1ccccc1-c1nc2ccccc2[nH]1 | > 100 | > 100 | > 100 | > 100 | > 100 | > 100 | > 100 | > 100 | > 100 | > 100 | > 100 | > 100 | > 100 | > 100 | > 100 | > 100 | > 100 | > 100 | > 100 | > 100 |
| COc1cc(C(=O)/C=C/c2c(-c3ccc(F)cc3)nc3sccn23)cc(OC)c1OC | 13.2 | > 30 | 6.28 | 6.81 | 4.79 | 7.36 | 17.2 | 5.09 | 14.3 | 33.7 | 2.99 | 0.405 | 2.05 | 2.27 | 1.85 | 2.37 | 4.84 | 1.41 | 2.3 | 14.1 |
| O=C(Cc1ccc(/C=C/C(=O)c2ncc[nH]2)cc1)Nc1ccc(Br)cc1 | 5.25 | 8.48 | > 16.7 | 3.88 | 5.83 | > 16.7 | 6.65 | 12.9 | > 16.7 | > 16.7 | 2.72 | 2.92 | 4.61 | 0.85 | 2.24 | 1.83 | 3.07 | 0.608 | 3.82 | 6.64 |
| BrP(NC1CCCCCC1)(c1ccccc1)(c1ccccc1)c1ccccc1 | 9.12 | 13 | > 100 | 9.94 | 52.7 | 11.1 | 6.62 | > 100 | 7.76 | 6.3 |  |  |  |  |  |  |  |  |  |  |
| COc1ccc(C(=O)Nc2ncc(Cc3ccc(F)cc3)s2)cc1 | > 95 | 30.7 | > 100 | 1.32 | 99.6 | > 100 | > 100 | > 100 | > 100 | > 100 | 0.0664 | 0.0446 | 0.0511 | 0.0346 | 0.406 | 0.481 | 2.16 | 0.0336 | 0.06 | 7.75 |
